Experimental data reported in patent US4680382A, “Analogues of actinomycin D” (priority 1986, dated 1987).

Legend:
[1] = test system: CCRF-CEM human lymphoblastic leukemic cells; assay: In vitro cytotoxicity against CCRF-CEM cells; format: cell-based; conditions: 48 hr
Protocol: ^a Human lymphoblastic leukemic cells.
The analogues were tested for their cytotoxicity against tumor cells (time, 48 hr). […] This may be associated with the initial microsomal transformation of the "reverse" analogues to "symmetrical" analogue and/or other alternate bioactive forms (e.g., free-radicals, O2^-), followed by deactivation via formation of conjugates and facile elimination of these from the host. The "reverse" analogues show reduced toxicity in vivo and also the tritiated "reverse" 7a is metabolized in vitro.

P388/S = assay: In vivo activity against P388/S (adriamycin sensitive) leukemia, Table VII; set-up: species or system BDF1 mice; conditions: for P388/S % ILS / P388/S tumor-free survivors/total on day 60: at optimal dose; for P388/S optimal dose: ip, days 1, 5 and 9
Protocol: (§1) ^a Male BDF1 mice inoculated ip: 10^6 cells inoculum, day 0.
(§2) Drugs administered in 10% dimethyl sulfoxidesaline on days 1, 5 and 9. %
(§3) ILS = percent increase in life span. Fractions in parentheses = tumorfree
(§4) survivors/total on day 60. P388/S (adriamycin sensitive) and P388/ADR
(§5) (adriamycin resistant) tumors were evaluated in the same experiment with […]

P388 Leukemia = assay: Minimum effective dose and therapeutic index vs. P388 leukemia; format: in vivo; conditions: dose giving 45% increase in life span in P388 tumor bearing mice; ip days 1, 5 and 9
Protocol: (§6) These analogues were also tested in tumor-free BDF1 male mice for determination of their MTD values (Table VIII). The animals (18-22 g) were given a broad range of doses of drugs in 5% dimethyl sulfoxide-saline on days 1, 5 and 9. Drugs were administered ip and the maximum tolerated doses of agents which caused death in only 10% of the tested animals in 21 days (i.e., LD10) were recorded as MTD. […] However, the MED values of 7-hydroxy-AMD and its precursor AMD-OZL 10a are high and are seven to tenfold of the MED values of 4a and 8a. On the basis of these MED values, the therapeutic indices of 8a and 4a are 70 and 96. The therapeutic index of 2a is 13, of 10a 10, and of AMD only 4.
^a Drugs administered ip once on days 1, 5 and 9 starting 1 day after
tumor implantation. Determinations were made from analysis of plotted
^b MED (minimum effective dose) is the dose (milligram/kilogram)
providing an increase in life span of 45% over control in P388 tumor

DNA = assay: Thermal denaturation of DNA (ΔTm); format: binding
Protocol: (§7) The "reverse" analogues bind to calf-thymus DNA, but the spectrophotometrically determined binding (Kapp and Bapp, equilibrium binding values) constants are found to be lower than those of AMD. The binding is also measured by thermal denaturation of DNA.
(§8) The equilibrium binding constants (Kapp and Bapp) of the "reverse" methyl 7a and the "reverse" phenyl 8a were determined from the Scatchard plots of binding isotherms; the Scatchard plots are produced according to the previously described methods using calf-thymus DNA [Sengupta et al, Biochem. Biophys. Acta 521, 89 (1978)]. The Kapp values are 2.5×10^6 and 2.3×10^6 M^-1, respectively; corresponding Bapp values are 0.038 and 0.036. […] But, these "reverse" analogues associate with DNA less strongly; their frequency of binding is also lower compared to that of AMD. However, the "reverse" analogues fail to cause any measurable change in the ratio of the intrinsic viscosity (γ) of DNA with the increasing ratios of [ligand]/DNA base pair (r), even when low molecular weight DNAs (0.5×10^5 to 1.0×10^5) were employed.
Melting points are determined on a Thomas-Hoover melting point apparatus at a heating rate of 2° C./min. Thin-layer chromatography was performed on silica gel plates (Brinkmann Instrument Inc.). Solvent systems were (A) EtOAc-acetone (4:1), (B) CHCl3 -MeOH (9:1) and (C) Cifferri, the organic phase of the mixture EtOAc-MeOH-H2 O (20:1:20). High-performance liquid chromatography was carried out on a Varian Model 5020 gradient liquid chromatograph equipped with a CD-111L chromatography data system and fitted with a Varian reversed-phase C18 column with the following solvent systems: I, CH3 CN-5 mM NH4 OAc buffer, pH 6.4 (68:32 isocratic), flow rate 1.5 mL/min; II, 65-95% water-methanol gradient for 70 min, 1 mL/min; III, 10-90% H2 O-MeOH gradient for 120 min, 1 mL/min, with UV-visible variable- and fixed-wavelength dual detectors at 254, 440, 470 and 520 nm. IR spectra were obtained on a Perkin-Elmer Model 237 Infra Cord with KBr micropellets or in chloroform solutions. UV-visible spectra were obtained on a Gilford 250 spectrophorometer, which, with the addition of a base-line reference compensator (Analog Multiplexer 5053) and thermoprogrammer, auto four cell programmer and thermoelectric cell holder 2577, were used to obtain thermal denaturation curves. Specific rotation values were determined in chloroform solutions with a Cary 60 spectropolarimeter. NMR spectra were obtained in a JEOL FQ-90 MHz spectrometer equipped with Fourier transform. EPR spectra analyses were recorded in a Varian E-9 EPR spectrometer. All elemental analyses were within ±0.4%.

P388 cells [2] = assay: Inhibition of RNA synthesis (2-[14C]uridine incorporation) in P388 cells; format: cell-based, murine; conditions: for IC50: 50% reduction in 1 hr of 2-[14C]uridine incorporation, read-out: IC50 RNA synth; for IC50 DNA/IC50 RNA: ratio
Protocol: (§9) Experiments for inhibition of nucleic acid synthesis in tumor cells in vitro were carried out with P388 tumor cells, details of which were reported by Sengupta et al, J. Med. Chem., 18, 1175 (1975). […] AMD-OZLs inhibit either process with equal activity and with the potency of its metabolite 7-hydroxy-AMD.
^b IC50 (RNA) = concentration of inhibitor in μM required to
cause 50% reduction (in 1 hr) in 2[^14 C]uridine incorporation into
acid precipitable material with use of P388 cells.

[3] = Maximum tolerated dose (LD10) in tumor-free BDF1 male mice; format: in vivo; conditions: lethal dose for 10% normal BDF1 male mice, 21 days (LD10); ip days 1, 5 and 9
Protocol: as §6
^c MTD (maximum tolerated dose) is the lethal dose
(milligram/kilogram) for 10% normal BDF1 male mice (18-22 g); animal
calculated from a plot of logdose vs. percent mortality.

[4] = test system: P388 lymphocytic leukemia; assay: In vivo antitumor activity against P388 leukemia; set-up: species or system BDF1 mice; conditions: for surv (surviving mice/total mice at 60 days) / % ILS / MST (range): P388, at optimal dose; for % ILS: 100(T/C - 1); for MST (range): control 11.0 (9-12); for optimal dose: P388, ip, days 1, 5 and 9, optimal nontoxic dose
Protocol: The analogues were tested for their antitumor activities in P388 lymphocytic leukemia in male BDF1 mice. The tumor was implanted intraperitoneally (ip) with 10^6 cells. The drugs were also administered ip once daily on days 1, 5 and 9, beginning 1 day after tumor transplantation. Analogues were tested over a range of doses, but only the optimal nontoxic doses are listed.
^a 10^6 P388 cells implanted ip on day 0 into groups of eight
BDF1 male mice. Drugs administered ip. MST (range), median survival
time in days (range of individual animal deaths); % ILS, percent increase
in life span, calculated 100(T/C - 1), where T and C are median survival
times of treated and control animals; surv, number of surviving mice/tota

calf-thymus DNA = assay: Equilibrium binding to calf-thymus DNA, Scatchard plots of binding isotherms (spectrophotometric); conditions: Scatchard plot
Protocol: as §7, §8

B16 melanoma = assay: In vivo antitumor activity against B16 melanoma; set-up: species or system BDF1 mice; conditions: for % ILS / surv (survivors on day 65/total injected) / MST (range): at optimal dose; for MST (range): control 29 (20-48); for optimal dose: ip, days 1, 5, 9
Protocol: AMD-OZL analogues 9a and 10a were about as active as AMD and 7-hydroxy-AMD. The potencies of these analogues are reduced in comparison to that of AMD; their optimal doses were higher than that of AMD.
^a 0.2 mL of 1:5 (weight/volume) brei of B16 melanoma implanted
ip on day 0 in groups of nine BDF1 mice. Drugs administered ip.
^b MST (range) median survival time in days (range of individual
^c % ILS (surv), percent increase in lifespan (survivors on day

P388 cells [5] = assay: Inhibition of DNA synthesis (methyl-[3H]thymidine incorporation) in P388 cells; format: cell-based, murine; conditions: 50% reduction in 1 hr of methyl-[3H]thymidine incorporation, read-out: IC50 DNA synth
Protocol: as §9
^c IC50 (DNA) = concentration of inhibitor in μM required to
cause 50% reduction (in 1 hr) in methyl[^3 H]thymidine incorporation
into acid precipitable material with use of P388 cells.

P388/ADR = assay: In vivo activity against P388/adriamycin-resistant leukemia; set-up: species or system BDF1 mice; conditions: for P388/ADR optimal dose: ip, days 1, 5 and 9
Protocol: as §1, §2, §3, §4, §5

Row | Structure (SMILES) | in vitro (CCRF-CEM) ID50 [1] | P388/S % ILS (P388/S) | P388/S tumor-free survivors/total on day 60 (P388/S) | P388/S optimal dose (P388/S) | MED (minimum effective dose) (P388 Leukemia) | IC50 (P388 cells [2]) | IC50 DNA/IC50 RNA (P388 cells [2]) | MTD (maximum tolerated dose) [3] | surv (surviving mice/total mice at 60 days) [4] | % ILS [4] | MST (range) [4] | optimal dose [4] | % ILS (B16 melanoma) | surv (survivors on day 65/total injected) (B16 melanoma) | MST (range) (B16 melanoma) | optimal dose (B16 melanoma) | IC50 (P388 cells [5]) | P388/ADR % ILS (P388/ADR; at optimal dose) | P388/ADR optimal dose (P388/ADR) | further results
1 | Cc1c2oc3c(C)c4oc(-c5ccccc5)nc4c(C(=O)NC4C(=O)NC(C(C)C)C(=O)N5CCCC5C(=O)N(C)CC(=O)N(C)C(C(C)C)C(=O)OC4C)c3nc-2c(C(=O)NC2C(=O)NC(C(C)C)C(=O)N3CCCC3C(=O)N(C)CC(=O)N(C)C(C(C)C)C(=O)OC2C)c(N)c1=O [8a, 7-Amino-9,11-dimethyl-2-phenyl-8H-8-oxooxazolo [4,5-b]phenoxazine 4,6-bis[carbonyl-L-threonyl-D-valyl-L-prolylsarcosyl-L-N-methylvaline(threonine hydroxyl)] lactone] | 30 nM | 382% | 4/8 | 0.35 mg/kg | 0.03 milligram/kilogram | 70 nM | 11.43 | 1.80 milligram/kilogram | 4/8 | 382% | 52.0 (49-58) days | 375.0 μg/kg per inj | 103% | 5/9 | 59 (53-59) days | 300 μg/kg per inj | 800 nM | 132% | 0.6 mg/kg | ΔTm (DNA melting temperature) (DNA): 6.7±0.2 °C; Bapp (equilibrium binding value) (calf-thymus DNA): 0.036; Kapp (equilibrium binding constant) (calf-thymus DNA): 2.3e+06 M⁻¹; P388/ADR tumor-free survivors/total on day 60 (P388/ADR; at optimal dose): 1/8
2 | Cc1c2oc3c(C)c4oc(-c5ccccc5)nc4c(C(=O)NC4C(=O)NC(C(C)C)C(=O)N5CCCC5C(=O)N(C)CC(=O)N(C)C(C(C)C)C(=O)OC4C)c3nc-2c(C(=O)NC2C(=O)NC(C(C)C)C(=O)N3CCCC3C(=O)N(C)CC(=O)N(C)C(C(C)C)C(=O)OC2C)cc1=O (stereo not drawn) [10a, 2-Phenyl-AMD--OZL] | 500 nM | 186% | 2/8 | 1.0 mg/kg | 0.20 milligram/kilogram | 3200 nM | 1.78 | 2.0 milligram/kilogram | 2/8 | 186% | 31.5 (29-57) days | 1000.0 μg/kg per inj | 55% | 2/9 | 45 (33-56) days | 900 μg/kg per inj | 5700 nM | 88% | 1.2 mg/kg | 
